The assay deals with T1, ΔF508-CFTR (Homo sapiens, UniProt P13569, DEL508-508).
T1 construct: expressed in transfected cells; host or cells: CFSMEo- (human CF submucosal gland epithelial cells, ΔF508/Q2X), transiently transfected by nucleofection
T1 sequence (P13569 with tags, fused parts or gaps DEL508-508): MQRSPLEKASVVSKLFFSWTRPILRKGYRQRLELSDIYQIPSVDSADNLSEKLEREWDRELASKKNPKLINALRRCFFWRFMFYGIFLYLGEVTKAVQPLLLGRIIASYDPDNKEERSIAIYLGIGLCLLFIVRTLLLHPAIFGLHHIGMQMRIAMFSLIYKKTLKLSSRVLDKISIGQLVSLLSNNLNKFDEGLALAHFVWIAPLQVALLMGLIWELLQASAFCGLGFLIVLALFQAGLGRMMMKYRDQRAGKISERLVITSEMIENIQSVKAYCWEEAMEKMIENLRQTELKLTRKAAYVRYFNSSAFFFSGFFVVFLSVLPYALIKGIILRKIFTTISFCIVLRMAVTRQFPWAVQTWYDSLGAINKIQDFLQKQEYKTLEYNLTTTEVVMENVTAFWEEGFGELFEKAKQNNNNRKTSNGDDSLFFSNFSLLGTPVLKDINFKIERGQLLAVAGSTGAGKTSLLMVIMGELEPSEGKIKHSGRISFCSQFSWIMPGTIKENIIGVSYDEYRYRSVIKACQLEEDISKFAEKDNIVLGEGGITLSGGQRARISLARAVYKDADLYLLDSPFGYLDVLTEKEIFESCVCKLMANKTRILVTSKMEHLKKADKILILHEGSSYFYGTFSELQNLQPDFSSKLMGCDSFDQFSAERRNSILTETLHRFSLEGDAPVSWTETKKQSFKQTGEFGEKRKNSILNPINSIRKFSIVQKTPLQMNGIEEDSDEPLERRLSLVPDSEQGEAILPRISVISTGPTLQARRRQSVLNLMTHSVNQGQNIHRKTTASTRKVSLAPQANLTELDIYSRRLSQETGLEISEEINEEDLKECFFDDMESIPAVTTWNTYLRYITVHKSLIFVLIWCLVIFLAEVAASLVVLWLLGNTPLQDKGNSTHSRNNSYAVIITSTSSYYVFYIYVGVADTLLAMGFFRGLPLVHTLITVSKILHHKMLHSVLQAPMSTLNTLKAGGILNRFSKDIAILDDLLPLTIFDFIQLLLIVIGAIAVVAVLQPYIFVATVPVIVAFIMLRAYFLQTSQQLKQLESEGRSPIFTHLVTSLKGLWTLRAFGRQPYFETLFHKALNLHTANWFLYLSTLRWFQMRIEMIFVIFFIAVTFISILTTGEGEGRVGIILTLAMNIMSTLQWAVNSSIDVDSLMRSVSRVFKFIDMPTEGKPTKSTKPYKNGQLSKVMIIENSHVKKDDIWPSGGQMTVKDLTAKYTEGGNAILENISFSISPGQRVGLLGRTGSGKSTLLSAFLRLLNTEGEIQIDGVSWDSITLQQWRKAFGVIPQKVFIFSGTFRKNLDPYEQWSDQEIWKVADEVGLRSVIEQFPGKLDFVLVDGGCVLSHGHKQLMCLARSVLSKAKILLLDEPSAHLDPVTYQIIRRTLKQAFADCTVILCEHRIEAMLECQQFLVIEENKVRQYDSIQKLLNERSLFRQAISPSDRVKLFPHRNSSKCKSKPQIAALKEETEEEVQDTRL
Briefly: ΔF508-CFTR-HRP trafficking assay (cell surface expression of ΔF508-CFTR). The conditions noted are these: CFSMEo- cells transiently transfected with ΔF508-CFTR-HRP; test agent 3 μM, 48 h; HRP chemiluminescence. The class given is cell-based. The text has this: Test agents were screened for their effect on cell surface expression of ΔF508-CFTR using the ΔF508-CFTR-HRP trafficking assay. For this assay, a ΔF508-CFTR expression construct was designed with an in-frame insertion of a horseradish peroxidase (HRP) tag into the 4th extracellular loop of CFTR. The HRP tag would be presented extracellularly, in cells transiently transfected with the ΔF508-CFTR-HRP construct, following correction of the ΔF508-CFTR trafficking defect. The quantity of ΔF508-CFTR-HRP expressed on the plasma membrane could therefore be determined by measuring an HRP-dependent signal after the application of a cell-impermeable HRP substrate.
In brief, CF submucosal gland epithelial cells (CFSMEo-), derived from the airways of a CF patient (ΔF508/Q2X) and provided by Dr. Dieter Gruenert, University of California-San Francisco, were cultured at 37° C. with 5% CO2 in minimum essential medium (MEM) with Earle's salt and nonessential amino acids, supplemented with 10% (volume per volume [v/v]) fetal bovine serum, 2 mM L-glutamine and 1× (v/v) penicillin/streptomycin and grown in tissue culture-treated flasks coated with an extracellular matrix (ECM) cocktail consisting of 10 μg/mL human fibronectin, 30 μg/mL bovine collagen type I, and 100 μg/mL bovine serum albumin in LHC basal medium. These CFSMEo^− cells were transiently transfected with 4 μg of the ΔF508-CFTR-HRP expression construct using the Lonza 4D-Nucleofector Core unit (Lonza, Catalogue No. AAF-1002B) with the X unit (Lonza, Catalogue No. AAF-1002X) and SF Cell Line 4D-Nucleofector X Kit L (Lonza, Catalogue No. V4XC-2024) according to the manufacturer's instructions and plated at 1.2×10^4 cells/well onto collagen-coated, 96-well plates (Corning Inc.). Twenty-four h post-transfection, cells were treated with test agents, solubilized in DMSO at a concentration of 3 μM in replicates of 3, and allowed to incubate for 48 h. To detect HRP expression, cell culture media was removed, cells were washed with PBS and 100 μL of Luminata Forte HRP chemiluminescent substrate (EMD Millipore, Burlington, MA) was added to each well. Following a 5-minute incubation, chemiluminescence was measured in relative luminescent units (RLUs) using an EnVision plate reader (Perkin Elmer, Waltham, MA).
The ΔF508-CFTR-HRP trafficking data was normalized to the vehicle treated control (0.3% DMSO), followed by calculation of the mean, standard deviation, and standard error. If the test agent increased cell surface expression of ΔF508-CFTR-HRP relative to the vehicle-treated control, then that test agent was considered a ΔF508-CFTR corrector. Based on the description above, the biological activity of the examples in this disclosure is collected in Table 2.
With `C[C@H](Oc1cc(-n2nc(C(F)(F)F)c3c2[C@H](OC24CC(C(=O)O)(C2)C4)CCC3)ccn1)c1ccc2c(c1)OC(F)(F)O2` [Example 52, 3-[[(7R)-1-[2-[(1S)-1-(2,2-difluoro-1,3-benzodioxol-5-yl)ethoxy]-4-pyridyl]-3-(trifluoromethyl)-4,5,6,7-tetrahydroindazol-7-yl]oxy]bicyclo[1.1.1]pentane-1-carboxylic acid], the “RLUs: ΔF508-CFTR-HRP trafficking data normalized to the vehicle treated control (0.3% DMSO)” value is listed as “C (RLU 0.0 μM-3.5 μM)”.

Regarding `CC[C@H](Oc1cc(-n2nc(C(F)(F)F)c3c2[C@@H](Oc2ccc(C(=O)O)cc2)CCC3)ccn1)c1ccc2c(c1)OC(F)(F)O2` (single isomer, unassigned) [Example 36k], the “RLUs: ΔF508-CFTR-HRP trafficking data normalized to the vehicle treated control (0.3% DMSO)” value is “C (RLU 0.0 μM-3.5 μM)”.

As for `C[C@H](Oc1cncc(-n2nc(C(F)(F)F)c3c2[C@@H](Oc2ccc(C(=O)O)cc2)CCC3)c1)c1ccc2c(c1)OC(F)(F)O2` (single isomer, unassigned) [Example 27], the “RLUs: ΔF508-CFTR-HRP trafficking data normalized to the vehicle treated control (0.3% DMSO)” value is recorded as “C (RLU 0.0 μM-3.5 μM)”.

For `C[C@H](Oc1cccc(-n2nc(C(F)(F)F)c3c2N(C(=O)N2CCC(C(=O)O)CC2)CCC3)c1)c1ccc2c(c1)OC(F)(F)O2` [Example 18, 1-[1-[3-[(1S)-1-(2,2-difluoro-1,3-benzodioxol-5-yl)ethoxy]phenyl]-3-(trifluoromethyl)-5,6-dihydro-4H-pyrazolo[3,4-b]pyridine-7-carbonyl]piperidine-4-carboxylic acid], the “RLUs: ΔF508-CFTR-HRP trafficking data normalized to the vehicle treated control (0.3% DMSO)” value is on record as “A (RLU 5.0 μM-10 μM)”.

Regarding `CC(Oc1cccc(-n2nc(C(F)(F)F)c3c2C(Oc2ccc(C(=O)O)cc2)CCC3)c1)c1ccc2c(c1)OC(F)(F)O2` (stereo not drawn) [Example 19, 4-[[1-[3-[1-(2,2-difluoro-1,3-benzodioxol-5-yl)ethoxy]phenyl]-3-(trifluoromethyl)-4,5,6,7-tetrahydroindazol-7-yl]oxy]benzoic acid], the “RLUs: ΔF508-CFTR-HRP trafficking data normalized to the vehicle treated control (0.3% DMSO)” value is on record as “B (RLU 3.5 μM-5.0 μM)”.

Take `C[C@H](Oc1cncc(-n2nc(C(F)(F)F)c3c2[C@@H](CN2CCC(C(=O)O)CC2)CCC3)c1)c1ccc2c(c1)OC(F)(F)O2` (single isomer, unassigned) [124 (P1)]: the “RLUs: ΔF508-CFTR-HRP trafficking data normalized to the vehicle treated control (0.3% DMSO)” value is on record as “B (RLU 3.5 μM-5.0 μM)”.

As for `C[C@H](Oc1ccnc(-n2nc(C(F)(F)F)c3c2[C@@H](Oc2ccc(C(=O)O)cc2)CCC3)c1)c1ccc2c(c1)OC(F)(F)O2` (single isomer, unassigned) [Example 36b], the “RLUs: ΔF508-CFTR-HRP trafficking data normalized to the vehicle treated control (0.3% DMSO)” value was “A (RLU 5.0 μM-10 μM)”.

In the case of `C[C@H](Oc1cc(-n2nc(C(F)(F)F)c3c2[C@H](OC24CCC(C(=O)O)(CC2)CC4)CCC3)ccn1)c1ccc2c(c1)OC(F)(F)O2` (single isomer, unassigned) [Example 65], the “RLUs: ΔF508-CFTR-HRP trafficking data normalized to the vehicle treated control (0.3% DMSO)” value is listed as “C (RLU 0.0 μM-3.5 μM)”.

Regarding `CC(C)[C@H](Nc1cc(-n2nc(C(F)(F)F)c3c2[C@@H](Oc2ccc(C(=O)O)cc2)CCC3)ccn1)c1ccc2c(c1)OC(F)(F)O2` (single isomer, unassigned) [Example 89], the “RLUs: ΔF508-CFTR-HRP trafficking data normalized to the vehicle treated control (0.3% DMSO)” value is “C (RLU 0.0 μM-3.5 μM)”.

For the compound `C[C@H](Oc1nc(-n2nc(C(F)(F)F)c3c2[C@@H](O[C@H]2C[C@H](C(=O)O)C2)CCC3)ccc1F)c1cc2c(cc1F)OC(F)(F)O2` (single isomer, unassigned) [84 (P1)], the “RLUs: ΔF508-CFTR-HRP trafficking data normalized to the vehicle treated control (0.3% DMSO)” value is “B (RLU 3.5 μM-5.0 μM)”.

Take `C[C@H](Oc1cc(-n2nc(C(F)(F)F)c3c2[C@@H](OC24CC(C(=O)O)(C2)C4)CCC3)cnc1F)c1cc2c(cc1F)OC(F)(F)O2` (single isomer, unassigned) [75 (P1)]: the “RLUs: ΔF508-CFTR-HRP trafficking data normalized to the vehicle treated control (0.3% DMSO)” value is “C (RLU 0.0 μM-3.5 μM)”.

Regarding `C[C@H](Oc1cncc(-n2nc(C(F)(F)F)c3c2N(C(=O)[C@H]2CC[C@H](C(=O)O)CC2)CCC3)c1)c1ccc2c(c1)OC(F)(F)O2` (single isomer, unassigned) [Example 17], the “RLUs: ΔF508-CFTR-HRP trafficking data normalized to the vehicle treated control (0.3% DMSO)” value is listed as “C (RLU 0.0 μM-3.5 μM)”.

Take `C[C@@H](Oc1cc(-n2nc(C(F)(F)F)c3c2C(O[C@H]2CC[C@H](C(=O)O)CC2)CCC3)ccn1)c1cc2c(cn1)OC(F)(F)O2` (single isomer, unassigned) [Example 47]: the “RLUs: ΔF508-CFTR-HRP trafficking data normalized to the vehicle treated control (0.3% DMSO)” value is recorded as “B (RLU 3.5 μM-5.0 μM)”.

In the case of `C[C@H](Oc1cccc(-n2nc(C(F)(F)F)c3c2C(Oc2ccc(C(=O)O)cc2)CCC3)c1)c1ccc2c(c1)OC(F)(F)O2` (stereo partly drawn) [Example 29], the “RLUs: ΔF508-CFTR-HRP trafficking data normalized to the vehicle treated control (0.3% DMSO)” value is listed as “B (RLU 3.5 μM-5.0 μM)”.

Consider `C[C@H](Nc1nc(-n2nc(C(F)(F)F)c3c2[C@@H](Oc2ccc(C(=O)O)cc2)CCC3)ccc1F)c1ccc2c(c1)OC(F)(F)O2` (single isomer, unassigned) [Example 92], for which the “RLUs: ΔF508-CFTR-HRP trafficking data normalized to the vehicle treated control (0.3% DMSO)” value is recorded as “B (RLU 3.5 μM-5.0 μM)”.

For `C[C@H](Oc1cc(-n2nc(C(F)(F)F)c3c2[C@H](OC24CCC(C(=O)O)(CC2)CC4)CCC3)cc(F)n1)c1ccc2c(c1)OC(F)(F)O2` (single isomer, unassigned) [81 (P1)], the “RLUs: ΔF508-CFTR-HRP trafficking data normalized to the vehicle treated control (0.3% DMSO)” value is “A (RLU 5.0 μM-10 μM)”.

In the case of `C[C@H](Nc1cccc(-n2nc(C(F)(F)F)c3c2[C@@H](Oc2ccc(C(=O)O)cc2)CCC3)n1)c1ccc2c(c1)OC(F)(F)O2` (single isomer, unassigned) [Example 91], the “RLUs: ΔF508-CFTR-HRP trafficking data normalized to the vehicle treated control (0.3% DMSO)” value is “A (RLU 5.0 μM-10 μM)”.

Turning to `C[C@H](Nc1cc(-n2nc(C(F)(F)F)c3c2[C@@H](NC24CC(C(=O)O)(C2)C4)CCC3)ccc1F)c1ccc2c(c1)OC(F)(F)O2` (single isomer, unassigned) [94 (P1)], the “RLUs: ΔF508-CFTR-HRP trafficking data normalized to the vehicle treated control (0.3% DMSO)” value is given as “C (RLU 0.0 μM-3.5 μM)”.

Consider `C[C@H](Oc1cc(-n2nc(C(F)(F)F)c3c2N(CC24CC(C(=O)O)(C2)C4)CCC3)cnn1)c1cc2c(cn1)OC(F)(F)O2` (single isomer, unassigned) [Example 2], for which the “RLUs: ΔF508-CFTR-HRP trafficking data normalized to the vehicle treated control (0.3% DMSO)” value is “C (RLU 0.0 μM-3.5 μM)”.

Take `C[C@H](Oc1cccc(-n2nc(C(F)(F)F)c3c2[C@H](OC24CC(C(=O)O)(C2)C4)CCC3)n1)c1ccc2c(c1)OC(F)(F)O2` (single isomer, unassigned) [77 (P2)]: the “RLUs: ΔF508-CFTR-HRP trafficking data normalized to the vehicle treated control (0.3% DMSO)” value is given as “B (RLU 3.5 μM-5.0 μM)”.

Regarding `C[C@H](Oc1cccc(-n2nc(C(F)(F)F)c3c2N(C(=O)c2ccc(C(=O)O)cc2)CCC3)c1)c1ccc2c(c1)OC(F)(F)O2` (single isomer, unassigned) [Example 15], the “RLUs: ΔF508-CFTR-HRP trafficking data normalized to the vehicle treated control (0.3% DMSO)” value is given as “B (RLU 3.5 μM-5.0 μM)”.

`C[C@H](Oc1cc(-n2nc(C(F)(F)F)c3c2[C@H](O[C@H]2CC[C@H](C(=O)O)CC2)CCC3)cnn1)c1ccc2c(c1)OC(F)(F)O2` (single isomer, unassigned) [Example 56]: the “RLUs: ΔF508-CFTR-HRP trafficking data normalized to the vehicle treated control (0.3% DMSO)” value is on record as “B (RLU 3.5 μM-5.0 μM)”.

As for `C[C@H](Oc1cc(-n2nc(C(F)(F)F)c3c2[C@@H](OC24CC(C(=O)O)(C2)C4)CCC3)ccc1F)c1ccc2c(c1)OC(F)(F)O2` (single isomer, unassigned) [76 (P1)], the “RLUs: ΔF508-CFTR-HRP trafficking data normalized to the vehicle treated control (0.3% DMSO)” value is recorded as “C (RLU 0.0 μM-3.5 μM)”.

`C[C@H](Oc1cncc(-n2nc(C(F)(F)F)c3c2N(Cc2ccc(C(=O)O)cc2)CCC3)c1)c1ccc2c(c1)OC(F)(F)O2` (single isomer, unassigned) [Example 12]: the “RLUs: ΔF508-CFTR-HRP trafficking data normalized to the vehicle treated control (0.3% DMSO)” value was “C (RLU 0.0 μM-3.5 μM)”.

As for `C[C@H](Nc1nc(-n2nc(C#N)c3c2[C@H](OC24CC(C(=O)O)(C2)C4)CCC3)ccc1F)c1ccc2c(c1)OC(F)(F)O2` (single isomer, unassigned) [108 (P2)], the “RLUs: ΔF508-CFTR-HRP trafficking data normalized to the vehicle treated control (0.3% DMSO)” value is “C (RLU 0.0 μM-3.5 μM)”.

Regarding `C[C@H](Oc1cccc(-n2nc(C(F)(F)F)c3c2[C@@H](OC24CC(C(=O)O)(C2)C4)CCC3)n1)c1ccc2c(c1)OC(F)(F)O2` (single isomer, unassigned) [77 (P1)], the “RLUs: ΔF508-CFTR-HRP trafficking data normalized to the vehicle treated control (0.3% DMSO)” value is reported as “B (RLU 3.5 μM-5.0 μM)”.

In the case of `C[C@H](Nc1nc(-n2nc(C#N)c3c2[C@@H](OC24CC(C(=O)O)(C2)C4)CCC3)ccc1F)c1ccc2c(c1)OC(F)(F)O2` (single isomer, unassigned) [108 (P1)], the “RLUs: ΔF508-CFTR-HRP trafficking data normalized to the vehicle treated control (0.3% DMSO)” value was “C (RLU 0.0 μM-3.5 μM)”.
